From patent US9931428B2, “Ophthalmic compositions” (priority 2011, dated 2018)

Experiments:
Assay in all cases: BS EN1276 quantitative suspension test, bactericidal activity, dirty conditions
Format in all cases: cell-based
Settings in all cases: aqueous solution of test article; EN 1276 dirty conditions
Bacillus subtillus 10262 = tested on: Bacillus subtillus 10262
[1] = tested on: Pseudomonas aeruginosa ATCC 15442
[2] = tested on: Staphylococcus aureus NCTC 6571
Escherichia coli 11867 = tested on: Escherichia coli 11867

Q: `O=C(O)CC(O)(CC(=O)O)C(=O)O` [Citric acid, citric acid] was tested. Which Microbial reduction (Bacillus subtillus 10262) did it give?
A: 2.29 × 10^3

Q: And the Microbial reduction [1]?
A: 2.69 × 10^3

Q: And the Microbial reduction [2]?
A: 3.02 × 10^2

Q: What about the Microbial reduction (Escherichia coli 11867) of the same compound?
A: 6.46 × 10^2
